In patent US20250042886A1, “BIS(HETERO)ARYL THIOETHER OXADIAZINES AS FUNGICIDAL COMPOUNDS” (Bayer Aktiengesellschaft, priority 2021, published 2025):

Key:
[1] = Measurement of Log P values by HPLC on reversed phase columns (EEC directive 79/831 Annex V.A8); assay type: physicochemical; conditions: Table 1, compounds of formula (I); method [a]: LC-UV, acidic range, 0.1% formic acid in water and acetonitrile
[2] = tested on: Colletotrichum lindemuthianum; assay: Colletotrichum lindemuthianum in vitro cell test; assay type: cell-based; conditions: 144 h, liquid culture, 6 days incubation, read-out: efficacy (inhibition of fungal growth); for inhibition at 20 ppm: 20 ppm of active ingredient; for inhibition at 50 µM: 50 μMol/l of active ingredient
Procedure: (§1) B-7. Colletotrichum lindemuthianum In Vitro Cell Test • Solvent: DMSO • Culture medium: 14.6 g anhydrous D-glucose (VWR), 7.1 g Mycological Peptone (Oxoid), 1.4 g granulated Yeast Extract (Merck), QSP 1 liter • Inoculum: spores suspension Fungicides were solubilized in DMSO and the solution used to prepare the required range of concentrations. […] A spore suspension of C. lindemuthianum was prepared and diluted to the desired spore density. Fungicides were evaluated for their ability to inhibit spores germination and mycelium growth in liquid culture assay. The compounds were added in the desired concentration to the culture medium with spores. After 6 days incubation, fungi-toxicity of compounds was determined by spectrometric measurement of mycelium growth. Inhibition of fungal growth was determined by comparing the absorbance values in wells containing the fungicides with the absorbance in control wells without fungicides.

Botrytis cinerea [3] = assay: Botrytis cinerea in vitro cell test; assay type: cell-based; conditions: 144 h, liquid culture, 6 days incubation, read-out: efficacy (inhibition of fungal growth); for inhibition at 20 ppm: 20 ppm of active ingredient; for inhibition at 50 µM: 50 μMol/l of active ingredient
Procedure: B-9. Botrytis cinerea In Vitro Cell Test • Solvent: DMSO • Culture medium: 1 g KH2PO4 (VWR), 1 g K2HPO4 (VWR), 0.5 g Urea (VWR), 3 g KNO3 (Prolabo), 10 g saccharose (VWR), 0.5 g MgSO4, 7H2O (Sigma), 0.07 g CaCl2, 2H2O (Prolabo), 0.2 mg MnSO4, H2O (Sigma), 0.6 mg CuSO4, 5H2O (Sigma), 7.9 mg ZnSO4, 7H2O (Sigma), 0.1 mg H3BO3 (Merck), 0.14 mg NaMoO4, 2H2O (Sigma), 2 mg thiamine (Sigma), 0.1 mg biotine (VWR), 4 mg FeSO4, 7H2O (Sigma), QSP 1 liter • Inoculum: spore suspension Fungicides were solubilized in DMSO and the solution used to prepare the required range of concentrations. […] A spore suspension of B. cinerea was prepared and diluted to the desired spore density. Fungicides were evaluated for their ability to inhibit spore germination and mycelium growth in liquid culture assay. The compounds were added in the desired concentration to the culture medium with spores. After 6 days incubation, fungi-toxicity of compounds was determined by spectrometric measurement of mycelium growth. Inhibition of fungal growth was determined by comparing the absorbance values in wells containing the fungicides with the absorbance in control wells without fungicides.

Pyricularia oryzae = assay: microbe, parasite or virus in culture; assay type: cell-based; conditions: 120 h; for inhibition at 20 ppm: read-out: efficacy (inhibition of fungal growth), 20 ppm of active ingredient, liquid culture, 5 days incubation; for inhibition at 50 µM: read-out: efficacy (inhibition of fungal growth), 50 μMol/l of active ingredient, liquid culture, 5 days incubation
Botrytis cinerea [4] = assay: In vivo preventive test on Botrytis cinerea (grey mould); conditions: 500 ppm of active ingredient, sprayed on young gherkin or cabbage plants 24 h before inoculation, evaluated 4 to 5 days after inoculation, read-out: efficacy
Procedure: The active ingredients were made soluble and homogenized in a mixture of Dimethyl sulfoxide/Acetone//Tween® 80 and then diluted in water to the desired concentration. The young plants of gherkin or cabbage were treated by spraying the active ingredient prepared as described above. Control plants were treated only with an aqueous solution of Acetone/Dimethyl sulfoxide/Tween® 80. After 24 hours, the plants were contaminated by spraying the leaves with an aqueous suspension of Botrytis cinerea spores.

Pyrenophora teres = Pyrenophora teres in vitro cell test; assay type: cell-based; conditions: 144 h, liquid culture, 6 days incubation, read-out: efficacy (inhibition of fungal growth); for inhibition at 50 µM: 50 μMol/l of active ingredient
Procedure: as §1, with “B-8. Pyrenophora teres In” for “B-7. Colletotrichum lindemuthianum In”, “Inoculum: spore” for “Inoculum: spores”, “of P. teres” for “of C. lindemuthianum”, “inhibit spore” for “inhibit spores”

Fusarium culmorum = Fusarium culmorum in vitro cell test; assay type: cell-based; conditions: 120 h, 50 μMol/l of active ingredient, liquid culture, 5 days incubation, read-out: efficacy (inhibition of fungal growth)
Procedure: B-10. Fusarium culmorum In Vitro Cell Test • Solvent: DMSO • Culture medium: 1 g KH2PO4 (VWR), 1 g K2HPO4 (VWR), 0.5 g Urea (VWR), 3 g KNO3 (Prolabo), 10 g saccharose (VWR), 0.5 g MgSO4, 7H2O (Sigma), 0.07 g CaCl2, 2H2O (Prolabo), 0.2 mg MnSO4, H2O (Sigma), 0.6 mg CuSO4, 5H2O (Sigma), 7.9 mg ZnSO4, 7H2O (Sigma), 0.1 mg H3BO3 (Merck), 0.14 mg NaMoO4, 2H2O (Sigma), 2 mg thiamine (Sigma), 0.1 mg biotine (VWR), 4 mg FeSO4, 7H2O (Sigma), QSP 1 liter • Inoculum: spores suspension
Fungicides were solubilized in DMSO and the solution used to prepare the required range of concentrations. The final concentration of DMSO used in the assay was ≤1%.
A spore suspension of F. culmorum was prepared and diluted to the desired spore density.
Fungicides were evaluated for their ability to inhibit spore germination and mycelium growth in liquid culture assay. The compounds were added in the desired concentration to the culture medium with spores. After 5 days incubation, fungi-toxicity of compounds was determined by spectrometric measurement of mycelium growth. Inhibition of fungal growth was determined by comparing the absorbance values in wells containing the fungicides with the absorbance in control wells without fungicides.

Row | Structure (SMILES) | chromatographic logP [1] | inhibition at 50 µM [2] [%] | inhibition at 50 µM (Botrytis cinerea [3]) [%] | pest or weed control at 500 ppm (Botrytis cinerea [4]) [%] | other results
1 | Cc1ccc(C[C@H]2CON=C(c3c(Sc4cccc(OC(F)(F)F)c4)cnc4ccccc34)N2)c(C)c1 (racemic) [Compound I-025] | 4.73 |  |  |  | inhibition at 20 ppm [2]: 90 to 100%; inhibition at 20 ppm (Botrytis cinerea [3]): 90 to 100%
2 | Cc1ccc(CC2CON=C(c3cc(Cl)nnc3S(=O)(=O)c3cccc(C(F)(F)F)c3)N2)c(C)c1 (racemic) [Compound I-001, (5RS)-3-(6-chloro-3-{[3-(trifluoromethyl)phenyl]sulfonyl}pyridazin-4-yl)-5-(2,4-dimethylbenzyl)-5,6-dihydro-4H-1,2,4-oxadiazine] | 4.24 |  |  |  | inhibition at 20 ppm (Pyricularia oryzae): 90 to 100%
3 | COc1cccc(Sc2nnc(C)c(C)c2C2=NOC[C@@H](c3ccc(C)s3)N2)c1 (racemic) [Compound I-084] | 2.77 | 90 to 100 | 70 to 79 |  | 
4 | Cc1ccc([C@@H]2CON=C(c3c(Sc4cccc5ccccc45)nnc4ccccc34)N2)s1 (racemic) [Compound I-102] | 3.8 | 80 to 89 | 80 to 89 |  | 
5 | Cc1ccc(Sc2nnc(C)c(C)c2C2=NOC[C@@H](c3cc(C)sc3C)N2)cc1 (racemic) [Compound I-099] | 3.36 | 70 to 79 | 80 to 89 | 70 to 79 | 
6 | Cc1cc([C@H]2CON=C(c3c(Sc4ccccn4)nnc(C)c3C)N2)c(C)s1 (racemic) [Compound I-036] | 2.32 | 90 to 100 |  |  | inhibition at 50 µM (Pyrenophora teres): 70 to 79%; inhibition at 50 µM (Fusarium culmorum): 90 to 100%
7 | COc1cccc(Sc2nnc(Cl)cc2C2=NOC[C@@H](Cc3ccc(Cl)cc3Cl)N2)c1 (racemic) [Compound I-034] | 4.3 |  |  |  | inhibition at 20 ppm (Pyricularia oryzae): 70 to 79%; inhibition at 20 ppm [2]: 90 to 100%; inhibition at 20 ppm (Botrytis cinerea [3]): 90 to 100%
8 | Cc1ccc([C@H]2CON=C(c3c(Sc4ccc(C)c(C)c4)nnc4ccccc34)N2)s1 (racemic) [Compound I-080] | 3.76 |  | 90 to 100 | 90 to 100 | inhibition at 50 µM (Pyricularia oryzae): 80 to 89%; inhibition at 50 µM (Fusarium culmorum): 90 to 100%
9 | CCOc1cccc(Sc2nnc3ccccc3c2C2=NOC[C@H](c3ccc(C)s3)N2)c1 (racemic) [Compound I-040] | 3.55 | 90 to 100 | 70 to 79 |  | inhibition at 50 µM (Fusarium culmorum): 80 to 89%
10 | Cc1cccc(Sc2nnc(C)c(C)c2C2=NOC[C@H](c3ccc(C)s3)N2)n1 (racemic) [Compound I-127] | 2.21 |  |  | 80 to 89 | 
11 | Cc1ccc([C@H]2CON=C(c3c(Sc4ccccc4)nnc(C)c3C)N2)s1 (racemic) [Compound I-117] | 2.69 |  | 90 to 100 | 90 to 100 | inhibition at 50 µM (Fusarium culmorum): 80 to 89%
12 | COc1cccc(Sc2cnc(Cl)cc2C2=NOC[C@H](Cc3ccc(Cl)cc3Cl)N2)c1 (racemic) [Compound I-002] | 4.51 |  |  |  | inhibition at 20 ppm (Pyricularia oryzae): 70 to 79%; inhibition at 20 ppm [2]: 90 to 100%; inhibition at 20 ppm (Botrytis cinerea [3]): 90 to 100%
13 | Cc1cccc(Sc2nnc(Cl)cc2C2=NOC[C@@H](Cc3ccc(Cl)cc3Cl)N2)c1 (racemic) [Compound I-028] |  |  |  |  | LogP [1]: 4.56^[a]; inhibition at 20 ppm (Pyricularia oryzae): 70 to 79%; inhibition at 20 ppm [2]: 80 to 89%; inhibition at 20 ppm (Pyrenophora teres; 20 ppm of active ingredient): 90 to 100%
14 | Cc1ccc([C@H]2CON=C(c3c(Sc4cccc(OC(F)(F)F)c4)nnc4ccccc34)N2)s1 (racemic) [Compound I-133] | 3.92 | 90 to 100 | 90 to 100 | 90 to 100 | inhibition at 50 µM (Pyricularia oryzae): 70 to 79%; inhibition at 50 µM (Fusarium culmorum): 70 to 79%
15 | Cc1ccc(Sc2nnc(C)c(C)c2C2=NOC[C@@H](c3ccc(C)s3)N2)c(C)c1 (racemic) [Compound I-126] | 3.28 | 70 to 79 |  |  | 
16 | Cc1ccc([C@@H]2CON=C(c3c(Sc4cccc(OC(F)(F)F)c4)nnc(C)c3C)N2)s1 (racemic) [Compound I-055] | 3.48 | 90 to 100 | 80 to 89 | 70 to 79 | 
17 | Cc1ccc([C@H]2CON=C(c3c(Sc4ccc(F)cc4F)nnc4ccccc34)N2)s1 (racemic) [Compound I-048] | 3.4 |  | 90 to 100 | 90 to 100 | 
18 | Cc1ccc([C@@H]2CON=C(c3c(Sc4ccccc4C)nnc(C)c3C)N2)s1 (racemic) [Compound I-045] | 2.94 |  | 80 to 89 | 80 to 89 | 
19 | Cc1cc([C@@H]2CON=C(c3c(Sc4cccc(OC(F)(F)F)c4)nnc(C)c3C)N2)c(C)s1 (racemic) [Compound I-047] | 3.83 | 90 to 100 |  |  | 
20 | CCOc1cccc(Sc2nnc(C)c(C)c2C2=NOC[C@@H](c3ccc(C)s3)N2)c1 (racemic) [Compound I-074] | 3.09 | 90 to 100 |  |  | 
21 | Cc1ccc([C@H]2CON=C(c3c(Sc4ccc(F)c(Cl)c4)nnc(C)c3C)N2)s1 (racemic) [Compound I-083] | 3.26 | 90 to 100 | 90 to 100 |  | 
22 | Cc1cc([C@@H]2CON=C(c3c(Sc4cccc(C(F)(F)F)c4)nnc(C)c3C)N2)c(C)s1 (racemic) [Compound I-086, (5R,S)-(2,5-dimethyl-3-thienyl)-3-(5,6-dimethyl-3-{[3-(trifluoromethyl)phenyl]sulfanyl}pyridazin-4-yl)-5,6-dihydro-4H-1,2,4-oxadiazine] | 3.72 | 90 to 100 | 90 to 100 |  | inhibition at 50 µM (Pyricularia oryzae): 70 to 79%; inhibition at 50 µM (Pyrenophora teres): 90 to 100%
23 | Cc1ccc([C@H]2CON=C(c3c(Sc4ccc(Cl)c(Cl)c4)nnc4ccccc34)N2)s1 (racemic) [Compound I-038] | 4.04 |  | 90 to 100 | 70 to 79 | 
24 | Cc1ccc([C@H]2CON=C(c3c(Sc4ccc(F)c(F)c4)nnc(C)c3C)N2)s1 (racemic) [Compound I-085] | 2.99 |  | 90 to 100 | 90 to 100 | inhibition at 50 µM (Fusarium culmorum): 70 to 79%
